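Briefly, cells in 96-well plates were exposed to five compound concentrations for 48 h, and endpoints were estimated by linear interpolation. Here, GI50 denotes the concentration required for 50% inhibition of growth.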 The source made the active and inactive calls. Rule as the data show it: active = GI50 up to about 1.1 µM and inactive = higher.
Tests used:
Experiment in all cases: growth of human tumour cells (NCI), 48 h
786-0 = tested on: 786-0
A498 = tested on: A498
A549 = tested on: A549
ACHN = tested on: ACHN
BT-549 = tested on: BT-549
CAKI-1 = tested on: CAKI-1
CCRF-CEM = tested on: CCRF-CEM
COLO 205 = tested on: COLO 205
DU-145 = tested on: DU-145
EKVX = tested on: EKVX
HCC 2998 = tested on: HCC 2998
HCT-116 = tested on: HCT-116
HCT-15 = tested on: HCT-15
HL-60 = tested on: HL-60
HOP-62 = tested on: HOP-62
HOP-92 = tested on: HOP-92
HT-29 = tested on: HT-29
Hs-578T = tested on: Hs-578T
IGROV-1 = tested on: IGROV-1
K562 = tested on: K562
KM12 = tested on: KM12
LOX IMVI = tested on: LOX IMVI
M14 = tested on: M14
MCF7 = tested on: MCF7
MDA-MB-231 = tested on: MDA-MB-231
MDA-MB-435 = tested on: MDA-MB-435
MOLT-4 = tested on: MOLT-4
NCI-H226 = tested on: NCI-H226
NCI-H23 = tested on: NCI-H23
NCI-H522 = tested on: NCI-H522
NCI/ADR-RES = tested on: NCI/ADR-RES
OVCAR-3 = tested on: OVCAR-3
OVCAR-4 = tested on: OVCAR-4
OVCAR-5 = tested on: OVCAR-5
OVCAR-8 = tested on: OVCAR-8
PC-3 = tested on: PC-3
RPMI-8226 = tested on: RPMI-8226
RXF 393 = tested on: RXF 393
SF-268 = tested on: SF-268
SF-295 = tested on: SF-295
SF-539 = tested on: SF-539
SK-MEL-28 = tested on: SK-MEL-28
SK-MEL-2 = tested on: SK-MEL-2
SK-MEL-5 = tested on: SK-MEL-5
SK-OV-3 = tested on: SK-OV-3
SN12C = tested on: SN12C
SNB-19 = tested on: SNB-19
SNB-75 = tested on: SNB-75
SR = tested on: SR
SW-620 = tested on: SW-620
T47D = tested on: T47D
TK-10 = tested on: TK-10
U-251 = tested on: U-251
UACC-257 = tested on: UACC-257
UACC-62 = tested on: UACC-62
UO-31 = tested on: UO-31
Malme-3M = tested on: Malme-3M

C=C1CC[C@](C)(O)[C@@]2(C)CC[C@H]3C(=C(C)C)C(=O)C[C@]3(C)C[C@H]12
GI50 (786-0): 14.6 µM (inactive) | GI50 (A498): > 50 µM (inactive) | GI50 (A549): 42.6 µM (inactive) | GI50 (ACHN): 42.8 µM (inactive) | GI50 (BT-549): 25.8 µM (inactive) | GI50 (CAKI-1): 22.4 µM (inactive) | GI50 (CCRF-CEM): 10.9 µM (inactive) | GI50 (COLO 205): 36.1 µM (inactive) | GI50 (DU-145): > 50 µM (inactive) | GI50 (EKVX): > 50 µM (inactive) | GI50 (HCC 2998): 23 µM (inactive) | GI50 (HCT-116): 14.8 µM (inactive) | GI50 (HCT-15): 14.9 µM | GI50 (HL-60): 7.6 µM (inactive) | GI50 (HOP-62): > 50 µM (inactive) | GI50 (HOP-92): > 50 µM (inactive) | GI50 (HT-29): 18.3 µM (inactive) | GI50 (Hs-578T): > 50 µM (inactive) | GI50 (IGROV-1): 14.7 µM (inactive) | GI50 (K562): 8.73 µM (inactive) | GI50 (KM12): 21 µM (inactive) | GI50 (LOX IMVI): 10.4 µM (inactive) | GI50 (M14): 37.5 µM (inactive) | GI50 (MCF7): 28.4 µM (inactive) | GI50 (MDA-MB-231): > 50 µM (inactive) | GI50 (MDA-MB-435): 17.5 µM (inactive) | GI50 (MOLT-4): 10.9 µM (inactive) | GI50 (NCI-H226): > 50 µM (inactive) | GI50 (NCI-H23): > 50 µM (inactive) | GI50 (NCI-H522): 14.3 µM (inactive) | GI50 (NCI/ADR-RES): 27.7 µM (inactive) | GI50 (OVCAR-3): 29.9 µM (inactive) | GI50 (OVCAR-4): > 50 µM (inactive) | GI50 (OVCAR-5): > 50 µM (inactive) | GI50 (OVCAR-8): > 50 µM (inactive) | GI50 (PC-3): 21.1 µM (inactive) | GI50 (RPMI-8226): 17.9 µM (inactive) | GI50 (RXF 393): 18.2 µM (inactive) | GI50 (SF-268): > 50 µM (inactive) | GI50 (SF-295): > 50 µM (inactive) | GI50 (SF-539): > 50 µM (inactive) | GI50 (SK-MEL-28): 43.7 µM (inactive) | GI50 (SK-MEL-2): > 50 µM (inactive) | GI50 (SK-MEL-5): 22.1 µM (inactive) | GI50 (SK-OV-3): > 50 µM (inactive) | GI50 (SN12C): > 50 µM (inactive) | GI50 (SNB-19): > 50 µM (inactive) | GI50 (SNB-75): 29 µM (inactive) | GI50 (SR): 13.4 µM (inactive) | GI50 (SW-620): 21.6 µM (inactive) | GI50 (T47D): 26.5 µM (inactive) | GI50 (TK-10): > 50 µM (inactive) | GI50 (U-251): > 50 µM (inactive) | GI50 (UACC-257): > 50 µM (inactive) | GI50 (UACC-62): 16.5 µM (inactive) | GI50 (UO-31): 20 µM (inactive)

COc1nc(C(=O)NNC(=O)c2nc(OC)c3ccccc3c2-c2ccccc2)c(-c2ccccc2)c2ccccc12
GI50 (786-0): > 100 µM (inactive) | GI50 (A498): > 100 µM (inactive) | GI50 (A549): > 100 µM (inactive) | GI50 (ACHN): > 100 µM (inactive) | GI50 (BT-549): > 100 µM (inactive) | GI50 (CAKI-1): > 100 µM (inactive) | GI50 (CCRF-CEM): > 100 µM (inactive) | GI50 (COLO 205): > 100 µM (inactive) | GI50 (DU-145): > 100 µM (inactive) | GI50 (EKVX): > 100 µM (inactive) | GI50 (HCC 2998): > 100 µM (inactive) | GI50 (HCT-116): > 100 µM (inactive) | GI50 (HCT-15): > 100 µM | GI50 (HL-60): > 100 µM (inactive) | GI50 (HOP-62): > 100 µM (inactive) | GI50 (HT-29): > 100 µM (inactive) | GI50 (Hs-578T): > 100 µM (inactive) | GI50 (IGROV-1): > 100 µM (inactive) | GI50 (K562): > 100 µM (inactive) | GI50 (KM12): > 100 µM (inactive) | GI50 (M14): > 100 µM (inactive) | GI50 (MCF7): > 100 µM (inactive) | GI50 (MDA-MB-231): > 100 µM (inactive) | GI50 (MDA-MB-435): > 100 µM (inactive) | GI50 (MOLT-4): > 100 µM (inactive) | GI50 (Malme-3M): > 100 µM (inactive) | GI50 (NCI-H226): > 100 µM (inactive) | GI50 (NCI-H23): > 100 µM (inactive) | GI50 (NCI-H522): > 100 µM (inactive) | GI50 (NCI/ADR-RES): > 100 µM (inactive) | GI50 (OVCAR-3): > 100 µM (inactive) | GI50 (OVCAR-4): > 100 µM (inactive) | GI50 (OVCAR-5): > 100 µM (inactive) | GI50 (OVCAR-8): > 100 µM (inactive) | GI50 (PC-3): > 100 µM (inactive) | GI50 (RPMI-8226): > 100 µM (inactive) | GI50 (RXF 393): > 100 µM (inactive) | GI50 (SF-268): > 100 µM (inactive) | GI50 (SF-295): > 100 µM (inactive) | GI50 (SK-MEL-28): > 100 µM (inactive) | GI50 (SK-MEL-2): > 100 µM (inactive) | GI50 (SK-MEL-5): > 100 µM (inactive) | GI50 (SK-OV-3): > 100 µM (inactive) | GI50 (SN12C): > 100 µM (inactive) | GI50 (SNB-19): > 100 µM (inactive) | GI50 (SNB-75): 96.6 µM (inactive) | GI50 (SR): 0.113 µM (active) | GI50 (SW-620): > 100 µM (inactive) | GI50 (T47D): > 100 µM (inactive) | GI50 (TK-10): > 100 µM (inactive) | GI50 (U-251): > 100 µM (inactive) | GI50 (UACC-257): > 100 µM (inactive) | GI50 (UACC-62): > 100 µM (inactive) | GI50 (UO-31): > 100 µM (inactive)

— ChEMBL document CHEMBL1201862, “PubChem BioAssay data set” (2004)
